In patent publication US5451564A, “Antimicrobial composition comprising N-hydroxy heterocyclic thiones” (priority 1991, dated 1995):

Columns and labels:
[1] = aqueous solubility of zinc complex after milling in pyrophosphate solution and dilution with distilled water until clear; format: physicochemical; conditions: for solubility in the presence of pyrophosphate (in words): relative to absence of oxy-phosphorus compound
Protocol: The concentration of the 2:1 zinc complex was then determined.
The zinc complex was milled in a 0.1 molar solution of tetrasodium pyrophosphate as described in Example 1. This was then diluted with distilled water until a clear solution was obtained.
These solutions were prepared by the method described in Example 1.

[2] = system: bacteria, fungi, yeasts and algae; conditions: in the presence of pyrophosphate salts
Protocol: Further aspects of the present invention are described in the following illustrative examples. Unless otherwise stated all refer to parts by weight.
(§1) In the microbiological testing, the compositions were tested for anti-microbial activity against bacteria and/or fungi including a yeast. The bacteria used were one or more of Eshcerichia coli, Pseudomonas aeruginosa, Staphylococcus aureus and Bacillus subtills. The fungi/yeast used were one or more of Aspergillus niger, Candida albicans, Aureobasidum pullulans, Gliocladium roseum, and Penicillium pinophilum.

Candida albicans = conditions: agar, 4 days at 25° C; 1% dispersion in 0.1 molar pyrophosphate (sample a: nil)
Protocol: as §1
(§2) These test organisms will be referred to hereafter as EC, PA, SA, BS, AN CA, AP, GR and PP respectively.
(§3) The material to be tested was dissolved in a suitable solvent and the solution obtained diluted with a further quantity of the same solvent to give a desired product concentration.
(§4) To a suitable agar medium was added a quantity of the product solution to give a desired concentration of the product. The agar medium containing the product was poured into petri dish plates and allowed to set.
(§5) The test organisms were surface inoculated onto the test plates by means of a multi-point inoculator. Each test plate was inoculated with both bacteria, fungi and yeast. The plates were incubated for four days at 25° C.
(§6) At the end of the incubation period, the plates were assessed visually for growth of the micro-organisms. The concentration of the product which inhibited the growth of a particular micro-organisms was recorded. This is the minimum inhibitory concentration (M.I.C.).
(§7) Generally, the compositions are evaluated against bacteria at the 25 and 100 ppm levels, and against fungi and yeast at the 5, 25 and 100 ppm levels.
(§8) 1% dispersions of the 1:2 zinc complex obtained from 1-hydroxy-2-pyridinethione were prepared in 0.1 molar solutions of various pyrophosphates as described in Example 1.

Penicillium pinophilum = conditions: agar, 4 days at 25° C; 1% dispersion in 0.1 molar pyrophosphate (sample a: nil)
Protocol: as §1, §2, §3, §4, §5, §6, §7, §8

Pseudomonas aeruginosa = conditions: agar, 4 days at 25° C; 1% dispersion in 0.1 molar pyrophosphate (sample a: nil)
Protocol: as §1, §2, §3, §4, §5, §6, §7, §8

Gliocladium roseum = conditions: agar, 4 days at 25° C; 1% dispersion in 0.1 molar pyrophosphate (sample a: nil)
Protocol: as §1, §2, §3, §4, §5, §6, §7, §8

Aspergillus niger = conditions: agar, 4 days at 25° C; 1% dispersion in 0.1 molar pyrophosphate (sample a: nil)
Protocol: as §1, §2, §3, §4, §5, §6, §7, §8

Aureobasidum pullulans = conditions: agar, 4 days at 25° C; 1% dispersion in 0.1 molar pyrophosphate (sample a: nil)
Protocol: as §1, §2, §3, §4, §5, §6, §7, §8

Bacillus subtills = conditions: agar, 4 days at 25° C; 1% dispersion in 0.1 molar pyrophosphate (sample a: nil)
Protocol: as §1, §2, §3, §4, §5, §6, §7, §8

Eshcerichia coli = conditions: agar, 4 days at 25° C; 1% dispersion in 0.1 molar pyrophosphate (sample a: nil)
Protocol: as §1, §2, §3, §4, §5, §6, §7, §8

Staphylococcus aureus = conditions: agar, 4 days at 25° C; 1% dispersion in 0.1 molar pyrophosphate (sample a: nil)
Protocol: as §1, §2, §3, §4, §5, §6, §7, §8

[3] = system: mixed algal suspension (Stichococcus bacillaris, Gloecapsa alpicola, Nostoc commune, Trentepohlia aurea); conditions: zinc complex of 1-hydroxy-2-pyridinethione as 1% dispersion in 0.1M pyrophosphate (sample a: nil); re-challenge after 2 weeks, examined after 4 weeks
Protocol: A sample containing no biocide was include as a control.
The above aliquots were then inoculated with 0.1 parts by volume of a mixed algal suspension of 7 day cultures of the following algae.
The samples were then incubated at 15° to 20° C. and exposed to artificial illumination of between 700 and 1200 LUX over a two week period, where the illumination was provided from the side and the light varied over a 24 hour period to give 16 hours illumination and 8 hours darkness.
After a two week incubation period, the samples were re-challenged with the mixed algal inoculum, and again examined after a 4 week incubation period. The minimum inhibitory concentration at which algal growth was suppressed was then established by visual assessment.

[4] = system: Pseudomonas aeruginosa (ATCC 19429); assay: survival of bacteria in shampoo preserved with biocide; format: cell-based
Protocol: A shampoo having the following composition
*Empicol, Empilan and Empigen are registered Trademarks of Albright and Wilson, was prepared by stirring the Empicol ESB70 in water, and then adding the Empilan 2502 followed by the Empigen BB to give a clear homogenous solution. An aqueous solution of citric acid was added with stirring to give a pH of 7. Finally, the sodium chloride was added and the whole diluted to parts by adding water.
Aliquots (20 parts) of the above shampoo were then prepared with concentrations of the biocides indicated in Table 4 at 500, 125, 31.25 and 7.8 ppm of active ingredient.
The above samples were then challenged with a 0.2 parts by volume inoculum of a 24 hour culture of Pseudomonas aeruginosa (ATCC 19429) containing approximately 1×10^8 colony forming units (cfu's) per milliliter. The samples were then incubated in the dark at 25° C., 1 milliliter samples taken after 24 hours, 48 hours and 7 days and the number of surviving bacteria determined.
The procedure described in Example 7 was repeated, except that the compounds and formulations used in that example were replaced by a commercially available formulation of zinc pyrithione or a 1% dispersion of the 2:1 complex of 1-hydroxy-2-pyridinethione and zinc in an aqueous solution of 0.1M tetrasodium pyrophosphate prepared as described in Example 1.

Row | SMILES | solubility in the presence of pyrophosphate (in words) [1] | Solubility ([1]; zinc dithiocarbamate complexes, nil or 0.1 M tetrasodium pyrophosphate) [ppm] | effect of increased solubility in pyrophosphate on microbiological activity [2] | MIC CA (Candida albicans) [ppm] | MIC PP (Penicillium pinophilum) [ppm] | MIC PA (Pseudomonas aeruginosa) | MIC GR (Gliocladium roseum) [ppm] | MIC AN (Aspergillus niger) [ppm] | MIC AP (Aureobasidum pullulans) [ppm] | MIC BS (Bacillus subtills) [ppm] | MIC EC (Eshcerichia coli) [ppm] | MIC SA (Staphylococcus aureus) [ppm] | Solubility ([1]; 1:2 zinc complex of 1-hydroxy-2-pyridinethione, pebble milled in 0.1 molar pyrophosphate salt (sample a: nil), diluted with distilled water) [ppm] | MIC (algal growth suppressed) [3] [ppm] | viable bacteria ([4]; 125 ppm, after 24 HRS) | viable bacteria ([4]; 125 ppm, after 48 HRS) | viable bacteria ([4]; 500 ppm, after 7 DAYS) | viable bacteria ([4]; 500 ppm, after 24 HRS) | viable bacteria ([4]; 500 ppm, after 48 HRS)
1 | S=C([S-])NCCNC(=S)[S-].[Zn+2] [EBD, zinc complex of ethylene bis dithiocarbamate] | increased solubility | < 5 |  |  |  |  |  |  |  |  |  |  |  |  |  |  |  |  | 
2 | On1ccccc1=S.On1ccccc1=S.[Zn] [a, 1:2 zinc complex of 1-hydroxy-2-pyridinethione] | improved solubility |  | does not adversely affect the microbiological activity | 25 | 5 | NA (Not active at 100 ppm) | 5 | 25 | 5 | 25 | 25 | 25 | < 10 | 0.64 |  |  |  |  | 
3 | CN(C)C(=S)[S-].CN(C)C(=S)[S-].[Zn+2] [ZDM, zinc complex of dimethyldithiocarbamate] |  |  |  |  |  |  |  |  |  |  |  |  |  |  | < 10 | < 10 | < 10 | < 10 | < 10
